{"source": "patent US20230305016A1", "about": "“TEST KIT AND METHOD OF DETERMINING TRYPTOPHAN IN EXTRACTS OF FAECAL SAMPLES” (IMMUNDIAGNOSTIK AG, priority 2020, published 2023)", "key": {"depression": {"test_system": "depression", "settings": "cited from earlier work; for side effects: adults; for effective in alleviating depression in adults: versus placebo"}, "GLUT5": {"test_system": "GLUT5", "settings": "mice; duodenum and adipose tissue; cited from earlier work"}, "[1]": {"set-up": "key to Oxidation into 14CO2: x: Detected but not quantified; xx: Detected but not quantified", "settings": "rats, cited from earlier work"}, "[2]": {"settings": "carboxyl group; cited from earlier work"}, "[3]": {"settings": "rat, in vivo; cited from earlier work"}, "[4]": {"assay": "Alkaline hydrolyzation of spiked fructose-tryptophan Amadori product in stool extract", "assay_type": "physicochemical", "settings": "10 M NaOH, 100° C., 20 min", "procedure": "5 mg fructose-tryptophan Amadori product (MW=366.37 Da) was dissolved in 2.27 ml aqua dest. (6 mM/L). The concentration of peptide groups in this solution was determined to be 4.36 mM/L using a BCA test (Smith P K et al, Measurement of protein using bicinchoninic acid, in: Analytical Biochemistry […], 150(1):76-85, doi:10.1016/0003-2697(85)90442-7). This concentration was taken in the spiking experiments. The IDK® Amino Extract (dilution 1:50) was spiked with fructose-tryptophan Amadori product (not the raw stool) to achieve a target concentration the spiked fecal extract of 6 μM Amadori adduct/L. This corresponds to a spiking of 300 μM fructose-tryptophan Amadori product per gram stool as the stool was diluted 1:50 in the extract.\nThe spiking and hydrolyzation was carried out as follows: 70 μl stool extract were spiked with 10 μl 60 μM/L fructose-tryptophan Amadori product (as determined by BCA) and 10 μl 10 M NaOH. This solution was incubated at 100° C. for 20 min. to achieve hydrolyzation of all adducts and centrifuged at 550 rpm for removal of any precipitate. Finally, 10 μl 10 M HCl was added to neutralize (dilution 1:10) the solution prior measurement of tryptophan. In case of a spiking with fructose or tryptophan, the spiking solution contained 60 μM/L fructose and/or tryptophan each."}, "[5]": {"settings": "% of the ingested/injected material"}}, "note": "Where two headings read alike, the source gives them in different places.", "data": [{"molecule": "N[C@@H](Cc1c[nH]c2ccc(O)cc12)C(=O)O", "note": "[5-HTP, 5-hydroxytryptophan]", "values": [{"measurement": "side effects", "setting": "depression", "value": "may have serious side effects"}, {"measurement": "effective in alleviating depression in adults", "setting": "depression", "value": "better than placebo"}]}, {"molecule": "O=S(=O)(c1ccccc1)N(CC(F)(F)F)c1ccc(C(O)(C(F)(F)F)C(F)(F)F)cc1", "note": "[T0901317]", "values": [{"measurement": "GLUT5 mRNA", "setting": "GLUT5", "value": "increase"}, {"measurement": "GLUT5 protein levels", "setting": "GLUT5", "value": "increased"}]}, {"molecule": "N[C@@H](Cc1c[nH]c2ccccc12)C(=O)O", "note": "[^14C-Tryptophan]", "values": [{"measurement": "Retention in liver", "setting": "[1]; [5]", "value": 0.7, "unit": "%"}, {"measurement": "urinary excretion", "setting": "[1]; [5]", "value": 60, "unit": "%"}, {"measurement": "Oxidation into 14CO2", "setting": "[1]; detected but not quantified", "value": "xx^b"}, {"measurement": "urinary excretion", "setting": "[1]; summary of Table 1", "value": "~60", "unit": "%"}]}, {"molecule": "N[C@@H](Cc1c[nH]c2ccccc12)C(=O)O", "note": "[tryptophan]", "values": [{"measurement": "side effects", "setting": "depression", "value": "may have serious side effects"}, {"measurement": "effective in alleviating depression in adults", "setting": "depression", "value": "better than placebo"}, {"measurement": "pKa", "setting": "[2]", "value": "2,38"}]}, {"molecule": "NC(CCCCNCC(=O)C(O)C(O)C(O)CO)C(=O)O", "note": "(stereo not shown) [ε-Lysine]", "values": [{"measurement": "absorption in the intestine", "setting": "[3]", "value": "NOT absorbed in the intestine"}]}, {"molecule": "D-fructose-L-tryptophan [fructose-tryptophan Amadori product]", "values": [{"measurement": "hydrolyzation of added adduct", "setting": "[4]", "value": "hydrolyzed"}]}]}
